Here are results for ten compounds from US5401853A, “Thiadiazole derivatives for the treatment of depressive states” (Laboratorio Farmaceutico C.T. S.r.l., priority 1992, dated 1995).

One series concerns mice. Nature of the series: Dispair test (Porsolt) in mice. The class given is in vivo, Swiss strain male mice (CD-1 Charles River). Particulars: for immobility duration: 1 hour before test; for minimal effective dose: Dispair test, i.p., read-out: active dosage. As to the method: This behaviouristic test conceived by Porsolt (1977 --Nature, 266 730-732 is generally utilized to evaluate the antidepressant activity.
Swiss strain male mice of average weight of 30 g (CD -1 Charles River) casually assigned to the different treatment groups are used.
The method consists in placing the animal in a plexiglas cylinder 25 cm high and with a diameter of 9 cm filled with water at 24° C. up to a level of 6 cm.
The test lasts 6 minutes and the time in which the animal lets itself float without reacting is measured starting from the 2nd minute (immobility duration).
The animals ape treated by intraperitoneal route (injection volume 10 ml/kg) 1 hour before the test.
The evaluation is carried out in blind. The statistical analysis of the results is carried out where it is possible by means of the T-Student test, otherwise the non parametric test of Mann Whitney is used.

The nature of series [1]: Acute toxicity (LD50) in mice. The conditions noted are these: mouse, in vivo, read-out: LD50 (DL50).
In another series the test system is rats. The series is described as follows: Social Interaction test in rats (anxiolythic activity). The class given is in vivo, Sprague-Dawley male rats. Particulars: 1 hour before test, vs controls. The text has this:
The behaviouristic Social Interaction test found by FILE was used. (Animal models of psychiatric disorders, vol. 1 Karger, Basel, pp 151-166).
It consists in an experimental procedure permitting to evaluate the influence of the pharmacological treatment on the spontaneous behaviour of the rat, by means of the social component which in this animal is particularly accentuated.
Sprague-Dawley male rats weighing about 250 g are used. After a normal stabling period (2 weeks), the animal are isolated in smaller cages (267×207×140 mm surface 410 cm^2) for a period of about 5 days.
Then the rats are gathered into couples, avoiding that weight difference between the two animals overcomes 10 g and that the couple components had not previously stabled together.
The couple thus gathered are assigned to the respective treatment group.
Diazepam was utilized as the positive control drug: 1,25 mg/kg are intraperitoneally administered 30' before carrying out the test.
The compounds to be tested are administered 1 hour before carrying out the test.
The box utilized [55×55×30 cm (height)] for the animal observation is white, completely washable and provided with a floor split up into 25 squares.
A 100 Watt lamp is placed upon the box at 50 cm from the floor. The test is realized in a remote room whose only light source is represented by the lamp lighting the box.
The evaluation is carried out in blind. The animals are observed indirectly, by means of a mirror suitably placed.
Evaluated parameters: time passed in Social Interaction (sniffing pursuit, grooming, boxing etc.).
The box is systematically cleaned up after every test.
The results are expressed as a function of a percentage increase of Social Interaction of the treated animals in comparison with the controls.

Where [2] appears, read: Mus musculus, ip, 1 h, 0.25 mg/kg i.p., vs control (dosage 0), read-out: immobility duration < % (decrease).
Setting [3] is: Mus musculus, ip, 1 h, 0.5 mg/kg i.p., vs control (dosage 0), read-out: immobility duration < % (decrease).
Setting [4] is: Mus musculus, ip, 1 h, 1 mg/kg i.p., vs control (dosage 0), read-out: immobility duration < % (decrease).
Where [5] appears, read: Mus musculus, ip, 1 h, 0.1 mg/kg i.p., vs control (dosage 0), read-out: immobility duration < % (decrease).

SMILES strings stand for the structures. Where two headings read alike, the source gives them in different places.

What is called LD50 is the dose expected to kill half of the subjects tested. On to `CC(=O)Nc1nnc(SCc2ccccc2)s1` [B17, 2-acetylamino-5-benzylmercapto-1,3,4-thiadiazole], for which the immobility duration is on record as 198 ± 16 in the series on mice (0.03 mg/kg i.p.); 159 ± 38 in the series with mice (0.06 mg/kg i.p.); 167 ± 22 in the series with mice (0.125 mg/kg i.p.); 183 ± 20 with mice (0.25 mg/kg i.p.); 182 ± 25 with mice (0.5 mg/kg i.p.); 187 ± 36 in the series on mice (1 mg/kg i.p.). In addition, in the series with mice (Mus musculus, ip, 1 h, 0.06 mg/kg i.p., vs control (dosage 0), read-out: immobility duration < % (decrease)), the inhibition in vivo at 0.06 mg/kg was found to be 22%. Further, the inhibition in vivo at 0.125 mg/kg with mice (Mus musculus, ip, 1 h, 0.125 mg/kg i.p., vs control (dosage 0), read-out: immobility duration < % (decrease)) was 17%. Besides, in the series with mice (setting [2]), the inhibition in vivo at 0.25 mg/kg is 10%. For the same compound, in the series on mice (setting [3]), the inhibition in vivo at 0.5 mg/kg came out at 10%. Moreover, the minimal effective dose in the series with mice (Mus musculus, ip, 1 h) was around 0.5 mg/kg. Also, the LD50 was above 1000 mg/kg in series [1] (ip) and above 1000 mg/kg in series [1] (po, per os).

`CSc1nnc(N)s1` [B21]: the immobility duration with mice (20 mg/kg i.p.) came to 187 ± 13; in the series with mice (25 mg/kg i.p.) it was 175 ± 31; with mice (50 mg/kg i.p.) it was 161 ± 26; in the series on mice (60 mg/kg i.p.) it was 176 ± 21; in the series with mice (75 mg/kg i.p.) it was 170 ± 39; in the series on mice (100 mg/kg i.p.), 187 ± 25. In addition, in the series on mice (Mus musculus, ip, 1 h, 20 mg/kg i.p., vs control (dosage 0), read-out: immobility duration < % (decrease)), the inhibition in vivo at 20 mg/kg came to 8%. Also, the inhibition in vivo at 25 mg/kg with mice (Mus musculus, ip, 1 h, 25 mg/kg i.p., vs control (dosage 0), read-out: immobility duration < % (decrease)) stood at 16%. In addition, the inhibition in vivo at 50 mg/kg in the series with mice (Mus musculus, ip, 1 h, 50 mg/kg i.p., vs control (dosage 0), read-out: immobility duration < % (decrease)) was found to be 23%. Moreover, in the series on mice (Mus musculus, ip, 1 h, 60 mg/kg i.p., vs control (dosage 0), read-out: immobility duration < % (decrease)), the inhibition in vivo at 60 mg/kg came out at 16%. Besides, the inhibition in vivo at 75 mg/kg in the series with mice (Mus musculus, ip, 1 h, 75 mg/kg i.p., vs control (dosage 0), read-out: immobility duration < % (decrease)) came out at 19%. In addition, the inhibition in vivo at 100 mg/kg in the series on mice (Mus musculus, ip, 1 h, 100 mg/kg i.p., vs control (dosage 0), read-out: immobility duration < % (decrease)) turned out to be 11%. Besides, the LD50 in series [1] (ip) was above 1000 mg/kg.

Consider `CC(C)Sc1nnc(N)s1` [B35], for which the results for the immobility duration in the series with mice (10 mg/kg i.p.), in the series with mice (15 mg/kg i.p.) and in the series with mice (20 mg/kg i.p.) were 165 ± 42, 194 ± 14 and 185 ± 11, respectively. In addition, in the series on mice (Mus musculus, ip, 1 h, 10 mg/kg i.p., vs control (dosage 0), read-out: immobility duration < % (decrease)), the inhibition in vivo at 10 mg/kg was 17%. Besides, in the series on mice (Mus musculus, ip, 1 h), the minimal effective dose came out at 10 mg/kg.

On to `CC(=O)Nc1nnc(SC(C)C)s1` [B36, 2-N-acethyl-5-isopropylmercapto-1,3,4thiadiazole], for which the immobility duration with mice (0.5 mg/kg i.p.) is on record as 178 ± 33; with mice (1 mg/kg i.p.), 159 ± 23; in the series with mice (2.5 mg/kg i.p.) it was 188 ± 16; in the series on mice (5 mg/kg i.p.) it was 196 ± 22; in the series on mice (12.5 mg/kg i.p.), 199 ± 15. For the same compound, in the series on mice (setting [4]), the inhibition in vivo at 1 mg/kg stood at 19%. Further, the minimal effective dose with mice (Mus musculus, ip, 1 h) was 1 mg/kg.

For the compound `CC(=O)N(C)c1nnc(SC(C)C)s1` [B39, 2-(N-methyl-N-acethyl)-amino-5-isopropylmercapto-1,3,4-thiadiazole], the immobility duration in the series with mice (0.125 mg/kg i.p.) is on record as 180 ± 19; in the series on mice (0.25 mg/kg i.p.), 155 ± 36; in the series on mice (0.5 mg/kg i.p.) it was 169 ± 30; in the series on mice (1 mg/kg i.p.) it was 161 ± 14; in the series with mice (5 mg/kg i.p.), 176 ± 28; in the series with mice (10 mg/kg i.p.), 204 ± 18. Besides, in the series with mice (setting [2]), the inhibition in vivo at 0.25 mg/kg was found to be 18%. Further, the inhibition in vivo at 0.5 mg/kg in the series on mice (setting [3]) was 10%. Also, the inhibition in vivo at 1 mg/kg in the series with mice (setting [4]) is 14%.

As to `CC(=O)Nc1nnc(SCc2ccc([N+](=O)[O-])cc2)s1` [B45], the immobility duration was determined as 182 ± 22 in the series with mice (0.1 mg/kg i.p.), 167 ± 26 with mice (0.25 mg/kg i.p.), 166 ± 18 in the series with mice (0.5 mg/kg i.p.) and 183 ± 17 with mice (1 mg/kg i.p.). Besides, in the series on mice (setting [2]), the inhibition in vivo at 0.25 mg/kg was 16%. For the same compound, the inhibition in vivo at 0.5 mg/kg with mice (setting [3]) was 16%.

With `COc1ccc(CSc2nnc(N)s2)cc1` [B51], the immobility duration in the series on mice (0.01 mg/kg i.p.) worked out at 200 ± 19; with mice (0.03 mg/kg i.p.), 164 ± 29; in the series with mice (0.1 mg/kg i.p.), 166 ± 13; in the series with mice (0.3 mg/kg i.p.) it was 158 ± 24; with mice (1.25 mg/kg i.p.), 174 ± 40; with mice (5 mg/kg i.p.), 189 ± 15. Moreover, in the series on mice (Mus musculus, ip, 1 h, 0.03 mg/kg i.p., vs control (dosage 0), read-out: immobility duration < % (decrease)), the inhibition in vivo at 0.03 mg/kg worked out at 13%. Also, the inhibition in vivo at 0.1 mg/kg in the series with mice (setting [5]) was 12%. In addition, the inhibition in vivo at 0.3 mg/kg in the series with mice (Mus musculus, ip, 1 h, 0.3 mg/kg i.p., vs control (dosage 0), read-out: immobility duration < % (decrease)) was 16%. Also, the minimal effective dose with mice (Mus musculus, ip, 1 h) is around 0.5 mg/kg.

Turning to `COc1ccc(CSc2nnc(NC(C)=O)s2)cc1` [B53], the immobility duration worked out at 182 ± 16 in the series on mice (0.1 mg/kg i.p.), 165 ± 25 in the series on mice (0.5 mg/kg i.p.), 151 ± 29 in the series on mice (1 mg/kg i.p.) and 195 ± 31 with mice (2 mg/kg i.p.). In the series with mice (setting [3]), the inhibition in vivo at 0.5 mg/kg was found to be 10%. For the same compound, the inhibition in vivo at 1 mg/kg in the series with mice (setting [4]) turned out to be 15%.

Regarding `COc1cccc(CSc2nnc(N)s2)c1` [B63], the immobility duration in the series with mice (0.05 mg/kg i.p.) was determined as 187 ± 34; with mice (0.1 mg/kg i.p.), 171 ± 26; with mice (0.25 mg/kg i.p.) it was 159 ± 22; in the series with mice (0.5 mg/kg i.p.) it was 166 ± 25; with mice (1 mg/kg i.p.), 174 ± 30; with mice (10 mg/kg i.p.), 187 ± 26. In the series with mice (setting [5]), the inhibition in vivo at 0.1 mg/kg was determined as 15%. Besides, in the series on mice (setting [2]), the inhibition in vivo at 0.25 mg/kg turned out to be 21%. For the same compound, the inhibition in vivo at 0.5 mg/kg in the series on mice (setting [3]) turned out to be 18%. Further, the inhibition in vivo at 1 mg/kg in the series on mice (setting [4]) was found to be 14%. The “Social Interaction increase (%)” value is 14% in the series with rats (0.25 mg/kg), 40% in the series with rats (0.5 mg/kg), 70% in the series on rats (1 mg/kg) and 73% in the series with rats (2.5 mg/kg).

For `CN(C)CCCN1c2ccccc2CCc2ccccc21` [imipramine, reference compound], the minimal effective dose in the series with mice (Mus musculus, ip, 1 h) came to 20 mg/kg.
